Marks after values point to notes of the source that are not given here.
Tests used:
[1] = molecular target: TRβ-GAL4 binding domain chimeric receptors (Homo sapiens (Human), UniProt P10828); test: Thyroid hormone receptor cell assay (GAL4 luciferase reporter in HEK293-LUC cells); type: cell-based
Description: TRα-LBD or TRβ-LBD, coding sequence was inserted into pBIND expression vector (Promega, E1581) to express TRβ-GAL4 binding domain chimeric receptors. This expression vector was transfected into HEK293-LUC host cells with reporter vector (pGL4.35 which carry a stably integrated GAL4 promoter driven luciferase reporter gene). Upon agonist binding to the corresponding TRa-GAL4 or TRb-GAL4 chimeric receptor, the chimeric receptor binds to the GAL4 binding sites and stimulates the reporter gene.
Seed 2.5×10^6 HEK293-LUC cells into a 60 mm dish and incubated for 16 h at 37° C. under 5% CO2 atmosphere. Mix 12 microliters of Lipo LTX reagent in 250 microliters of Opti-MEM Medium by inversion. Mix 6 ug of DNA in 250 uL of Opti-MEM medium, then add 6 uL of Lipo PLUS Reagent. Add diluted DNA to each tube of diluted Lipo LTX Reagent (1:1 ratio), and mix by Pipettor and incubate at room temperature for 10 min. The reagent mixture was added to a 60 mm dish, incubated with cells for 4-7 h at 37 degrees under 5% CO2 atmosphere.
75 nL compound was added into 384 well assay plate using ECHO550 and then add HEK293-LUC cells (transfected, 17,000 cells/well) into the plate using phenol red-free DMEM containing 5% charcoal/dextran-treated FBS and incubated for 16-20 h at […] under 5% CO2 atmosphere. Add 25 uL of Steady-Glo Luciferase Assay Reagent into each well. Shake for 5 min and then record the luminescence value on Envision 2104 plate reader.

[2] = molecular target: ligand binding domain of thyroid hormone receptor alpha (Homo sapiens (Human), UniProt P10827); test: Thyroid hormone receptor TR-FRET binding assay (TRα LBD); settings: TRα LBD 4 nM
Sequence of ligand binding domain of thyroid hormone receptor alpha (P10827 other isoform, or with tags, fused parts or gaps del 1-162, other chains not shown): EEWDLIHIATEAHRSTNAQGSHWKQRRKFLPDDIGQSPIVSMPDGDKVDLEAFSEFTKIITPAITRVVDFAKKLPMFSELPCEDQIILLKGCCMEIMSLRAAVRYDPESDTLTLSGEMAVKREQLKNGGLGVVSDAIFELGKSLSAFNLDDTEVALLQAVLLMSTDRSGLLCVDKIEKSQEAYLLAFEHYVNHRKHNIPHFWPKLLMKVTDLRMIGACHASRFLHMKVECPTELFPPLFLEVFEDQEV
Method: (§1) TR-FRET binding assay was used to test representative compounds herein.
(§2) The ligand binding domain of thyroid hormone receptor alpha and the ligand binding domain of thyroid hormone receptor beta with GST tag were purchased from Invitrogen. Biotin-SRC2-2 coactivator peptide was purchased from Sangon Biotech, Europium anti-GST and Streptavidin-D2 was from Cisbio.
(§3) Five microliters of 4× compound serial dilution was added in the 384-well plate, white, low volume, round-bottom assay plate. […] Centrifuge the assay plates at 1000 g for 1 min and incubate 1 hr at RT, protected from light. […] Calculate EC50 by fitting % Activity values and log of compound concentrations to nonlinear regression (dose response—variable slope) with Graphpad 5.0.

[3] = molecular target: ligand binding domain of thyroid hormone receptor beta (Homo sapiens (Human), UniProt P10828); test: Thyroid hormone receptor TR-FRET binding assay (TRβ LBD); settings: TRβ LBD 2 nM
Sequence of ligand binding domain of thyroid hormone receptor beta (P10828 217-461): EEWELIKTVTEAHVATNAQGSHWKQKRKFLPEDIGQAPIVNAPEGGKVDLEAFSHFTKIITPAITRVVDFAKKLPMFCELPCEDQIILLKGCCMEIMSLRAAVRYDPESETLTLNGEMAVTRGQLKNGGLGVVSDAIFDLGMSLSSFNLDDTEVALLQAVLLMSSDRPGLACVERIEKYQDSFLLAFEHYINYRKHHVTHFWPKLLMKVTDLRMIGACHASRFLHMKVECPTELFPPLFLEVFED
Method: as §1, §2, §3

[4] = Human hepatocyte clearance study; type: in vitro ADME
Method: The in vitro human hepatocyte clearance of compounds described here was studied using pooled human hepatocytes purchased from BioreclamationIVT (Westbury, NY, Cat # X008001, Lot # TQJ). The assay was conducted according to manufacturer's instruction. Briefly, 10 mM stock solutions of test compounds and positive control (Verapamil) were prepared in 100% DMSO. […] Incubation media is made of Williams E medium supplemented with 1×GlutaMax. Both thawing medium and incubation medium (serum-free) were placed in a 37° C. water bath for at least 15 minutes prior to use. […] Verapamil was use as a positive control in the assay. Vials of cryopreserved hepatocytes were removed from storage and thawed in a 37° C. water bath with gentle shaking. Contents of the vial were poured into the 50 mL thawing medium conical tube. Vials were centrifuged at 100 g for 10 minutes at room temperature. […] Hepatocyte viability and density were counted using a Trypan Blue exclusion, and then cells were diluted with serum-free incubation medium to a working cell density of 0.5×10^6 viable cells/mL. Then, a portion of the hepatocytes at 0.5×10^6 viable cells/mL was boiled for 5 minutes prior to adding to the plate as negative control to eliminate the enzymatic activity so that little or no substrate turnover should be observed. The boiled hepatocytes were used to prepare negative samples. Aliquots of 198 μL hepatocytes were dispensed into each well of a 96-well non-coated plate. The plate was placed in the incubator on an orbital shaker at 500 rpm for approximately 10 minutes. […] This assay was performed in duplicate. The plate was incubated in the incubator on an orbital shaker at 500 rpm for the designated time points. Twenty-five microliter of contents were transferred and mixed with 6 volumes (150 μL) of cold acetonitrile with IS (200 nM imipramine, 200 nM labetalol and 200 nM diclofenac) to terminate the reaction at time points of 0, 15, 30, 60, 90 and 120 minutes. […] For data analysis, all calculations were carried out using Microsoft Excel. Peak areas were determined from extracted ion chromatograms. The in vitro half-life (t1/2) of parent compound was determined by regression analysis of the percent parent disappearance vs. time curve. […] Conversion of the in vitro t1/2 (in minutes) into the scale-up unbound intrinsic clearance (scaled-up unbound CLint, in mL/min/kg) was done using the following equation (mean of duplicate determinations): Scaled-up unbound CLint=kV/N×scaling factor, where V=incubation volume (0.5 mL); N=number of hepatocytes per well (0.25×10^6 cells).

Sequence of TRβ-GAL4 binding domain chimeric receptors (P10828 217-461, stated change not applied): as the sequence (P10828 217-461) above

Compound	EC50 [1] [µM]	EC50 [2] [µM]	EC50 [3] [µM]	further results
N#Cc1nn(-c2cc(Cl)c(Oc3cc(C4CC4)c(=O)[nH]n3)c(Br)c2)c(=O)[nH]c1=O [Compound 7]	7.38	5.82	0.37	–
N#Cc1nn(-c2cc(Br)c(Oc3cc(C4CC4)c(=O)[nH]n3)c(Br)c2)c(=O)[nH]c1=O [Compound 8]	–	–	–	Human In vitro T1/2 ([4]; human, hepatocytes): ∞*; Human In vitro Clint ([4]; human, hepatocytes, 1 µM): 0.00* μL/min/10^6 cells; Human Scale-up Clint ([4]; human, hepatocytes, 1 µM): 0.00* mL/min/kg; Human Hepatocyte Remaining Percentage @ 120 min ([4]; human, hepatocytes, 2 h, 1 µM): 98%
Cc1nn(-c2cc(Cl)c(Oc3cc(C4CCC4)c(=O)[nH]n3)c(Cl)c2)c(=O)[nH]c1=O [Compound 9]	–	–	–	CLint scaled at 1 µM ([4]; human, hepatocytes): 9.5 mL/min/kg; half-life at 1 µM ([4]; human, hepatocytes): 6.18 h; hepatocyte CLint at 1 µM ([4]; human, hepatocytes): 3.73 µL/min/1e6 cells; Human Hepatocyte Remaining Percentage @ 120 min ([4]; human, hepatocytes, 2 h, 1 µM): 79%
Cc1nn(-c2cc(Cl)c(Oc3cc(C4CCCC4)c(=O)[nH]n3)c(Cl)c2)c(=O)[nH]c1=O [Compound 14]	0.65	4.06	0.37	–
Cc1nn(-c2cc(Cl)c(Oc3cc(C4CCCCC4)c(=O)[nH]n3)c(Cl)c2)c(=O)[nH]c1=O [Compound 15]	4.61	60.2	4.33	–
N#Cc1nn(-c2cc(Cl)c(Oc3cc(CC4CCCCC4)c(=O)[nH]n3)c(Cl)c2)c(=O)[nH]c1=O [Compound 17]	12.2	> 90	0.72	–
N#Cc1nn(-c2cc(Br)c(Oc3cc(C4CCCC4)c(=O)[nH]n3)c(Br)c2)c(=O)[nH]c1=O [Compound 20]	4.98	> 90	0.17	–
Cc1nn(-c2cc(Br)c(Oc3cc(C4CCCC4)c(=O)[nH]n3)c(Br)c2)c(=O)[nH]c1=O [Compound 22]	0.2	1.4	0.09	–
Cc1nn(-c2cc(Br)c(Oc3cc(C4CC4)c(=O)[nH]n3)c(Br)c2)c(=O)[nH]c1=O [Compound 23]	0.18	0.56	0.06	–
Cc1nn(-c2cc(Cl)c(Oc3cc(Cc4ccccc4)c(=O)[nH]n3)c(Cl)c2)c(=O)[nH]c1=O [Compound 27]	–	–	–	Human Hepatocyte Remaining Percentage @ 120 min ([4]; human hepatocytes, 120 min): 100%; Human Scale-up Clint ([4]; human hepatocytes, scaling factor 2544.3): 1.04 mL/min/kg; Human In vitro Clint ([4]; human, hepatocytes): 0.41 μL/min/10^6 cells; Human In vitro T1/2 ([4]; human, hepatocytes): 56.77 h
N#Cc1nn(-c2cc(Cl)c(Oc3cc(Cc4ccc(O)cc4)c(=O)[nH]n3)c(Cl)c2)c(=O)[nH]c1=O [Compound 33]	11.5	1.27	0.08	–
Cc1nn(-c2cc(Cl)c(Oc3cc(C(C)C)c(=O)[nH]n3)c(Cl)c2)c(=O)[nH]c1=O [Compound 35]	–	2.57	–	Human In vitro Clint ([4]; human, hepatocytes): 2.21 μL/min/10^6 cells; Human In vitro T1/2 ([4]; human, hepatocytes): 10.4 h; Human Scale-up Clint ([4]; human, hepatocytes): 5.63 mL/min/kg; Human Hepatocyte Remaining Percentage @ 120 min ([4]; human, hepatocytes, 2 h): 89%
CCc1nn(-c2cc(Cl)c(Oc3cc(C(C)C)c(=O)[nH]n3)c(Cl)c2)c(=O)[nH]c1=O [Compound 37]	1.22	9.82	1.55	–
CCC(CC)c1cc(Oc2c(Cl)cc(-n3nc(C)c(=O)[nH]c3=O)cc2Cl)n[nH]c1=O [Compound 40]	0.61	38.8	0.41	–
Cc1nn(-c2cc(Br)c(Oc3cc(C(C)C)c(=O)[nH]n3)c(Br)c2)c(=O)[nH]c1=O [Compound 46]	0.09	0.31	0.03	–
CC(C)c1cc(Oc2c(Cl)cc(-n3nc(C#N)c(=O)[nH]c3=O)cc2C(F)(F)F)n[nH]c1=O [Compound 47]	4.13	1.49	0.16	–
CC(C)c1c[nH]c2ccc(Oc3c(Cl)cc(-n4nc(C#N)c(=O)[nH]c4=O)cc3Cl)cc12 [Compound 56]	1.05	1.03	0.09	–
N#Cc1nn(-c2cc(Cl)c(Oc3cc(C4CCC4)c(=O)[nH]n3)c(C(F)(F)F)c2)c(=O)[nH]c1=O [Compound 62]	5.29	1.43	0.18	–
N#Cc1nn(-c2cc(Cl)c(Oc3cc(C4CCCC4)c(=O)[nH]n3)c(C(F)(F)F)c2)c(=O)[nH]c1=O [Compound 63]	8.43	90	0.17	–
N#Cc1nn(-c2cc(Cl)c(Oc3cc(C4CC4)c(=O)[nH]n3)c(C(F)(F)F)c2)c(=O)[nH]c1=O [Compound 65]	4.1	1.04	0.15	CLint scaled at 1 µM ([4]; human, hepatocytes): 4.53 mL/min/kg; half-life at 1 µM ([4]; human, hepatocytes): 13 h; hepatocyte CLint at 1 µM ([4]; human, hepatocytes): 1.78 µL/min/1e6 cells; Human Hepatocyte Remaining Percentage @ 120 min ([4]; human, hepatocytes, 2 h, 1 µM): 94%
Cc1nn(-c2cc(Cl)c(Oc3cc(Cc4ccc(C#N)cc4)c(=O)[nH]n3)c(Cl)c2)c(=O)[nH]c1=O [Compound 66]	–	–	–	CLint scaled at 1 µM ([4]; human, hepatocytes): 4 mL/min/kg; half-life at 1 µM ([4]; human, hepatocytes): 14.7 h; hepatocyte CLint at 1 µM ([4]; human, hepatocytes): 1.57 µL/min/1e6 cells; Human Hepatocyte Remaining Percentage @ 120 min ([4]; human, hepatocytes, 2 h, 1 µM): 93%
N#Cc1nn(-c2cc(Cl)c(Oc3cc(Cc4ccc5[nH]ncc5c4)c(=O)[nH]n3)c(Cl)c2)c(=O)[nH]c1=O [Compound 73]	11.2	1.18	0.1	–
CC(C)c1c[nH]c2ccc(Oc3c(Cl)cc(-n4nc(C#N)c(=O)[nH]c4=O)cc3C(F)(F)F)cc12 [Compound 83]	0.23	0.14	0.02	–
CC(C)c1cc(Oc2c(Cl)cc(-n3nc(C#N)c(=O)[nH]c3=O)cc2Cl)n[nH]c1=O [MGL-3196, reference compound]	–	–	–	CLint scaled at 1 µM ([4]; human, hepatocytes): 21.3 mL/min/kg; half-life at 1 µM ([4]; human, hepatocytes): 2.75 h; hepatocyte CLint at 1 µM ([4]; human, hepatocytes): 8.39 µL/min/1e6 cells; Human Hepatocyte Remaining Percentage @ 120 min ([4]; human, hepatocytes, 2 h, 1 µM): 60%

— US12391677B2, “Thyroid hormone receptor agonists” (INVENTISBIO CO., LTD., priority 2018, dated 2025)
